Measurements from patent US20240285728A1, “TARGETED PROTEIN DELIVERY TO MAMMALIAN EMBRYOS AND THERAPEUTIC APPLICATIONS USING EXOSOMES” (University of Maryland, Baltimore, priority 2021, published 2024).
Blank lines part the entries; values can stand above or below the compound they belong to.

Experiments:
[1] = system: Fgf2 promoter in yolk sac endoderm PYS2 cell line; experiment: Fgf2 promoter luciferase reporter activity under high glucose; format: cell-based; conditions: suppressed by high glucose (25 mM glucose), PYS2 cells
Method: (§1) Cell culture and transfection. The C17.2 mouse neural stem cell line from the European Collection of Cell Culture (Salisbury, UK) and the yolk sac endoderm PYS2 cell line (ATCC® CRL2745™) were maintained in DMEM (5 mM glucose) supplemented with 10% FBS, 100 U/ml penicillin, and […] streptomycin at 37° C. in a humidified atmosphere of 5% CO2. Mouse recombinant FGF2 (#3139-FB; R&D Systems, Minneapolis, MN) was used at a final concentration of 10 ng/ml. Lipofectamine 2000 (Invitrogen, Carlsbad, CA) was used according to the manufacturer's protocol for transfection of siFGF2 and control siRNA (Invitrogen, Carlsbad, CA) into the cells. After seeding for 12 h, cells were transfected with recombinant FGF2 and cultured in 1% FBS for 8 h, after which cells were cultured in 10% FBS and collected after 48 h for analysis.

[2] = system: (p)-PERK, (p)-IRE1α, (p)-eIF2α and CHOP; conditions: mouse, in vivo
Method: (§3) Mouse models of diabetic embryopathy. The mouse model of diabetic embryopathy was described previously [4,22,36,45,46]. Briefly, ten-week old female mice were intravenously injected daily with 75 mg/kg STZ over two days to induce diabetes. Diabetes was defined as 12 hours fasting blood glucose level of ≥250 mg/dL. Male and female mice were paired at 3:00 PM, and day 0.5 (E0.5) of pregnancy was established by the presence of the vaginal plug at 8:00 AM the next morning. Female mice injected with vehicle served as the nondiabetic controls. On E7.5, E8.5, E9.5 or E10.5 mice were euthanized and conceptuses were dissected out of the uteri for biochemical and molecular analysis.
(§4) Immunoblotting. Immunoblotting was performed as described by Yang at el [4]. Lysis buffer (Cell Signaling Technology, Danvers, MA) containing a protease inhibitor cocktail (Sigma, St Louis, MO) was used to extract protein. Equal amounts of protein and Precision Plus Protein Standards (Bio-Rad, Hercules, CA) were resolved by SDS-PAGE and transferred onto Immunobilon-P membranes (Millipore, Billerica, MA). […] Signals were detected using the SuperSignal West Femto Maximum Sensitivity Substrate kit (Thermo Fisher Scientific, Waltham, MA). […]

[3] = mouse, in vivo
Method: Briefly, ten-week old female mice were intravenously injected daily with 75 mg/kg STZ over two days to induce diabetes. Diabetes was defined as 12 hours fasting blood glucose level of ≥250 mg/dL. Male and female mice were paired at 3:00 PM, and day 0.5 (E0.5) of pregnancy was established by the presence of the vaginal plug at 8:00 AM the next morning. Female mice injected with vehicle served as the nondiabetic controls. On E7.5, E8.5, E9.5 or E10.5 mice were euthanized and conceptuses were dissected out of the uteri for biochemical and molecular analysis. The exosome inhibitor GW4869 (Sigma, St, Louis, MO) was injected daily to nondiabetic pregnant dams from E7.0 to E8.0. NTDs were examined at E10.5.

neuroepithelial cells = conditions: mouse, in vivo
Method: as §3, §4

[4] = system: embryos of nondiabetic dams; conditions: mouse, in vivo
Method: Mouse models of diabetic embryopathy. […] Briefly, ten-week old female mice were intravenously injected daily with 75 mg/kg STZ over two days to induce diabetes. Diabetes was defined as 12 hours fasting blood glucose level of ≥250 mg/dL. Male and female mice were paired at 3:00 PM, and day 0.5 (E0.5) of pregnancy was established by the presence of the vaginal plug at 8:00 AM the next morning. Female mice injected with vehicle served as the nondiabetic controls. On E7.5, E8.5, E9.5 or E10.5 mice were euthanized and conceptuses were dissected out of the uteri for biochemical and molecular analysis. The exosome inhibitor GW4869 (Sigma, St, Louis, MO) was injected daily to nondiabetic pregnant dams from E7.0 to E8.0. NTDs were examined at E10.5.
Statistical analyses. Data were presented as means±standard errors (SE). In animal studies, experiments were repeated at least three times, and embryonic samples from each replicate were from different dams. Statistical differences were determined by one-way analysis of variance (ANOVA) using the SigmaPlot 12.5 (SigmaStat, San Jose, CA). In one-way ANOVA analysis, Tukey test was used to estimate the significance of the results (P<0.05). The Chi square test and Fisher Exact test were used to estimate the significance of NTD incidence.

[5] = system: exosome production in the developing embryos; experiment: Exosome profile, exosome numbers and CD63 expression in E8.5 embryos after GW4869 injections; format: in vivo, mouse
Method: Mouse models of diabetic embryopathy. […] NTDs were examined at E10.5.
Exosome extraction and labelling. Cells and debris were removed from cell culture media via centrifugation at 2000×g for 30 minutes at 4° C. Supernatants containing the cell-free culture media were transferred to a new tube without disturbing the pellet. Total Exosome Isolation (#4478359, Invitrogen, Carlsbad, CA) at 0.5 volume of the collected supernatants was added to each tube. The cell culture media/reagent mixture was mixed well via vortex and pipetting up and down until it became a homogenous solution, and then was incubated at 4° C. overnight. After incubation, the samples were centrifuged at 10,000×g for 1 hour at 4° C. and the supernatants were discarded. Exosomes were contained in the pellet at the bottom of the tube (not visible in most cases). The pellet was re-suspended in 1 ml of 1×PBS, and NanoSight (#NS300, Malvern Panalytical) was used to measure the exosomes. The presence of exosomes was confirmed by Western blot using the exosomal marker CD63 (Santa Cruz Biotechnology, Dallas, TX). Exosomes were suspended in 1 ml Diluent C (Sigma, St Louis, MO) and labeled by incubating with PKH67 fluorescent dye (Sigma, St Louis, MO) for 5 min in the dark at room temperature. […]

Survivin = Survivin mRNA and protein expression in normal and high glucose culture; format: cell-based; conditions: normal glucose 5 mM / high glucose 25 mM culture
Method: as §1
Real-time PCR (RT-PCR). mRNA was isolated from embryos using the RNeasy Mini kit (Qiagen, Hilden, Germany), and then reversely transcribed using the high-capacity cDNA archive kit (Applied Biosystem, Grand Island, NY). Real time-PCR for Fgf2, Fgfr, Bmp4, Vegfr2, mVegfr1, Calnexin, GRP94, PDIA, BiP, IRE1α, CHOP, Survivin and β-actin were performed using the Maxima SYBR Green/ROX qPCR Master Mix assay (Thermo Fisher Scientific, Waltham, MA) in the Step One Plus system (Applied Biosystem, Grand Island, NY).

Survivin promoter = experiment: Luciferase reporter activity driven by the Survivin promoter; format: cell-based
Method: as §1

[6] = system: isolated E8 Flk-1^+ progenitors; experiment: Survivin protein in exosomes of isolated E8 Flk-1+ progenitors; format: cell-based, mouse; conditions: high glucose
Method: Isolation of Flk-1+ endothelial progenitor cells. Flk-1^+ progenitor cells were isolated from the E8 yolk sac. Yolk sacs were minced in phosphate-buffered saline PBS (Thermo Fisher Scientific, Waltham, MA), digested with 1 mg/ml of collagenase type I (Sigma, St Louis, MO) and incubated on an orbital shaker at 37° C. for 30-45 min. Following the collagenase treatment, cells were washed twice with growth medium (EBM-2, fetal bovine serum (10%), hFGF-basic (0.5 ml), hydrocortisone (0.2 ml), VEGF (0.5 ml), IGF-1 (0.5 ml), ascorbic acid (0.5 ml), hEGF (0.5 ml), GA-100 (0.5 ml)) before being plated. Cells were trypsinized (Lonza, Walkersville, MD) and sorted for Flk-1 with MACS microbeads (Miltenyi Biotec, Bergisch Gladbach, Germany) as per the kit instructions. The Flk-1^+ progenitor cells were collected and cultured in growth medium as mentioned above.
(§2) Exosome extraction and labelling. Cells and debris were removed from cell culture media via centrifugation at 2000×g for 30 minutes at 4° C. Supernatants containing the cell-free culture media were transferred to a new tube without disturbing the pellet. Total Exosome Isolation (#4478359, Invitrogen, Carlsbad, CA) at 0.5 volume of the collected supernatants was added to each tube. […]

yolk sac cell line = experiment: Exosome number and Survivin protein in exosomes of a yolk sac cell line; format: cell-based
Method: as §1
as §2, with “tube. The cell culture media/reagent mixture was mixed well via vortex and pipetting up and down until it became a homogenous solution, and then was incubated at 4° C. overnight.” for “tube.”

Compound: O=C(O)C(Cc1c[nH]c2ccccc12)N1C(=O)c2ccccc2C1=O (stereo not drawn) [RG108]
- Fgf2 promoter-driven luciferase activity [1]: restored

- ER stress in neurulation stage embryos [2]: triggered
- detection in the embryo [3]: reached the embryo
- NTD Embryos [4]: 7
- NTD rate [4]: 7.29%
Compound: O=C(/C=C/c1ccc(/C=C/C(=O)Nc2ccc(C3=NCCN3)cc2)cc1)Nc1ccc(C2=NCCN2)cc1 [GW4869]
- neuroepithelial cell apoptosis (neuroepithelial cells): triggered
- NTD induction [4]: mimicked the teratogenic effect of maternal diabetes
- exosome production in the developing embryos [5]: inhibited

Compound: FGF2: recombinant fibroblast growth factor 2, used at 10 ng/ml
- Survivin mRNA and protein expression (Survivin): normalized
- luciferase reporter activity driven by the Survivin promoter (Survivin promoter): stimulated
- Survivin expression in exosomes [6]: abolished this suppression
- Survivin in exosomal cargo (yolk sac cell line): rescued
